Counter-ions that a name gives are not always drawn.
Molecular target: T1, recombinant human Itk kinase domain fused with GST (Homo sapiens, UniProt Q08881)
T1 construct: recombinant human Itk kinase domain fused with GST; GST (Glutathione S-Transferase); made in house; host or cells: High five insect cells
T1 sequence (Q08881 363-615 limits assumed): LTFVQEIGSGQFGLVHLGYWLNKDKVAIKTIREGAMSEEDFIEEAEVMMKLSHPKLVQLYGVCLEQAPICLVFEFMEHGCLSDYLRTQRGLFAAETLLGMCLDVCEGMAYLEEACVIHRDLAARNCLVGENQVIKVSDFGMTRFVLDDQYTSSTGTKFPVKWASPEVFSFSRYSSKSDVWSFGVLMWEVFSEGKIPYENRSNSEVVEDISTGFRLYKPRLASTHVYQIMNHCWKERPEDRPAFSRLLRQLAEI
Assay: Itk LANCE TRF Assay
Format: biochemical
Details: 50 μM ATP, 2 μM biotinylated peptide substrate, 50 minutes RT; read-out: Inhibition of Kinase Itk (IC50 μM)
Method: The Itk kinase assay utilized recombinant human Itk kinase domain fused with GST (Glutathione S-Transferase). The protein was expressed in High five insect cells, purified in one step on an affinity chromatography glutathione column and stored in 50 mM Tris/HCl (pH 7.6), 150 mM NaCl, 5% (w/v) mannitol, 1 mM DTT, 30% glycerol at −70° C. The kinase substrate used in the assay was a biotinylated peptide derived from the Src-optimal substrate (Nair et at, J. Med. Chem., 38: 4276, 1995; biotin-AEEEIYGEFEAKKKK).
The assay additions were as follows: Test compounds (or controls; 1 μL in 100% DMSO) were added to black 96-well flat-bottomed plates (Greiner 655076) followed by 20 μL Itk in assay buffer and the reaction was started by adding 20 μL ATP and peptide substrate in assay buffer. The assay buffer constitution during phosphorylation was: 50 mM HEPES (pH 6.8), 10 mM MgCl2, 0.015% Brij 35, 1 mM DTT, 10% glycerol, 160 ng/well Itk, 2 μM peptide substrate and 50 μM ATP. The assay was stopped after 50 minutes (RT) by adding 150 μL ice-cold Stop solution (50 mM Tris/HCl, pH 7.5, 10 mM EDTA, 0.9% NaCl and 0.1% BSA) together with LANCE reagents (2 nM PT66-Eu^3+, Wallac AD0069 and 5 μg/ml Streptavidin-APC, Wallac AD0059. Both concentrations were final in stopped assay solution). The plates were measured on a Wallac 1420 Victor 2 instrument with TRF settings after 1 h incubation, and the ratio (665 signal/615 signal)*10000 was used to calculate the inhibition values. IC50 values were determined using XLfit.

Row | Structure (SMILES) | IC50 [µM]
1 | CN(C)CCCOc1ccc(-c2[nH]c3ncc(Cl)cc3c2C2CCNCC2)cc1 [Example 8, {3-[4-(5-Chloro-3-piperidin-4-yl-1H-pyrrolo[2,3-b]pyridin-2-yl)phenoxy]propyl}dimethylamine] | 0.18
2 | COc1ccc(-c2[nH]c3ncc(Br)cc3c2N2CCNCC2)cc1 [Example 21, 5-Bromo-2-(4-methoxy-phenyl)-3-piperazin-1-yl-1H-pyrrolo[2,3-b]pyridine trifluoroacetate] | 0.09
3 | Cc1cnc2[nH]c(-c3ccco3)c(C3CCCN(C(N)=O)C3)c2c1 (stereo not drawn) [Example 5, 3-[2-(2-Furyl)-5-methyl-1H-pyrrolo[2,3-b]pyridin-3-yl]piperidine-1-carboxamide] | 0.26

From US20050215582A1, “Substituted pyrrolopyridines” (priority 2002, published 2005)
